The values that follow come from patent US20130287890A1, “INHIBITOR OF THE PRODUCTION OF ADVANCED GLYCATION END PRODUCTS” (UENO FINE CHEMICALS INDUSTRY, LTD., priority 2012, published 2013).

The subject of one assay is 3-DG. Briefly: Quantitative determination of 3-DG (HPLC) after reaction of amino acid or biological protein with carbohydrates at 37° C. for 42 days. The format is biochemical. The settings on record: for 3-DG: 37° C., 42 days. The procedure: (§1) Amino acid or biological protein, carbohydrates and a phosphate buffer solution were charged in a 50 mL polypropylene centrifuge tube in each amount shown in Table 8, followed by sealing and stirring, and then the mixture was reacted in an incubator at 37° C. for 42 days. Next, the reactant was fractionated by centrifugation at 3,000 rpm for 3 hours using an ultrafiltration unit (VIVA SPIN 20, manufactured by Sartorius Corporation). The obtained low molecular weight fraction was used as a sample for determination of 3-DG, while the obtained high molecular weight fraction was used as a sample for the determination of fluorescent AGEs. Amino acid, biological protein and carbohydrates used are as follows:
In the same manner as in Test Example 1, except that the low molecular weight fraction prepared as mentioned above was used as a sample, quantitative determination of 3-DG was performed. In the same manner as in Test Example 2, except that the high molecular weight fraction prepared as mentioned above was used as a sample, determination of fluorescent AGEs was performed.
(§2) Amino acid, carbohydrates and a phosphate buffer solution were charged in a 50 mL polypropylene centrifuge tube in each amount shown in Table 10, followed by sealing and stirring, and then the mixture was reacted in an incubator at 37° C. for 42 days. Next, the reactant was filtered through a 0.2 μm filter and the obtained filtrate was used as a sample. Amino acid and carbohydrates used are as follows:
To 2 mL of a sample, the same amount of a 60% perchloric acid solution was added to deproteinize the sample. The sample was neutralized with 4 mL of an aqueous saturated sodium hydrogen carbonate solution and 0.8 mL of a 0.1% methanol solution of 2,3-diaminonaphthalene was added, and then the mixture was reacted at 4° C. for 16 hours. Next, the reactant was extracted with 4.4 mL of ethyl acetate, concentrated to dryness using an evaporator, dissolved in 5 mL of methanol, and then filtered through a 0.45 μm filter. The filtrate was subjected to high-performance liquid chromatography and 3-DG was quantitatively determined under the following measurement conditions.
Injection amount: 20 μL Column: TSK-GEL, ODS-80Ts (4.6×150 mm, manufactured by TOSOH CORPORATION) Column temperature: 30° C. Mobile phase: 50 mM phosphoric acid:methanol:acetonitrile=7:1.5:1.5 Flow rate: 1 mL/min.
as §1, with “Biological proteins,” for “Amino acid or biological protein,”, “are” for “were”, “12,” for “8,”, “AGEs, pentosidine, CML, RAGE agonist activity and RAGE antagonist activity. Biological proteins” for “AGEs. Amino acid, biological protein”
(§3) In the same manner as in Test Example 4, except that the low molecular weight fraction prepared as mentioned above was used as a sample, quantitative determination of 3-DG was performed. In the same manner as in Test Example 4, except that the high molecular weight fraction was filtered through a 0.2 μm filter and the filtrate was used as a sample, fluorescent AGEs, pentosidine, CML, RAGE agonist activity and RAGE antagonist activity were evaluated.
Collagen, carbohydrates and a phosphate buffer solution were charged in a 50 mL polypropylene centrifuge tube in each amount shown in Table 14, followed by sealing and stirring, and then the mixture was reacted in an incubator at 37° C. for 42 days. Next, the reactant was fractionated by centrifugation at 3,000 rpm for 3 hours using an ultrafiltration unit (VIVA SPIN 20, manufactured by Sartorius Corporation). […]

The next assay deals with T1, human RAGE (Homo sapiens, UniProt Q15109).
T1 construct: human RAGE plasmid (including full-length human RAGE cDNA); expressed in transfected cells; host or cells: C6 glioma cells carrying pNF-κB-Luc plasmid and human RAGE plasmid
T1 sequence (Q15109 23-404): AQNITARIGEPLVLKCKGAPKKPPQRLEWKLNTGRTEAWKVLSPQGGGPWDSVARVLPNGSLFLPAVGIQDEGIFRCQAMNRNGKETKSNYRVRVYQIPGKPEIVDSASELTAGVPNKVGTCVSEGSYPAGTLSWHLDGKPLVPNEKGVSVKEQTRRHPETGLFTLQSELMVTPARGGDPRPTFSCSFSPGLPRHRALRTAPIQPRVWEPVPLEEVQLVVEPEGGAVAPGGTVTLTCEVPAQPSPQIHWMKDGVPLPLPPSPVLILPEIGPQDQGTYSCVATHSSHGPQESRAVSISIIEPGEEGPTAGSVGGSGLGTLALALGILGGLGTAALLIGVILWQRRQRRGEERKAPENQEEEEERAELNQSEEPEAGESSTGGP
Kind of assay: RAGE antagonist activity of reaction samples (37° C., 42 days) mixed with AGE-BSA, NF-κB luciferase assay in C6 glioma cells. It is filed as cell-based, rat C6 glioma cells expressing human RAGE. The protocol: as §2
Using Luciferase Assay System (manufactured by Promega Corporation), evaluation of RAGE antagonist activity was performed. (Day 1) According to the methods disclosed in Diabetes, 2006, vol. 55, pp. 2510-2522, C6 glioma cells into which pNF-κB-Luc plasmid (manufactured by Stratagene Corporation) and human RAGE plasmid (including full-length human RAGE cDNA) have been introduced were seeded at 100 μL/well into a 96-well plate and cultured in a CO2 incubator until the cells were confluent. For the culture, 10% FBS/DMEM medium was used. (Day 2) The medium was removed, and after wells were washed with 300 μL of serum-free DMEM medium, 100 μL of 0.1% FBS/DMEM medium was slowly added. Then, the medium was incubated overnight in a CO2 incubator. (Day 3) The sample was diluted using the medium, and 50 μL of the diluted sample, AGE-BSA in which AGE was formed with glyceraldehydes (50 μg/mL) as a control, and the mixture of diluted sample and AGE-BSA were added to wells. After incubation in a CO2 incubator for 4 hours, the medium was removed and wells were washed 2 times with 300 μL of PBS (−). Then, 25 μL of 1× lysis buffer was added on ice. After the plate was shaken for 15 seconds, 20 μL of lysate was charged in a new white plate. Further 100 μL of a luciferase assay reagent was added, and a […] was measured by a luminometer. Using 5 μL of lysate, quantitative determination of protein was also performed.
as §1, with “Biological proteins,” for “Amino acid or biological protein,”, “are” for “were”, “12,” for “8,”, “AGEs, pentosidine, CML, RAGE agonist activity and RAGE antagonist activity. Biological proteins” for “AGEs. Amino acid, biological protein”
as §3
Collagen, carbohydrates and a phosphate buffer solution were charged in a 50 mL polypropylene centrifuge tube in each amount shown in Table 14, followed by sealing and stirring, and then the mixture was reacted in an incubator at 37° C. for 42 days. Next, the reactant was fractionated by centrifugation at 3,000 rpm for 3 hours using an ultrafiltration unit (VIVA SPIN 20, manufactured by Sartorius Corporation). The obtained low molecular weight fraction was used as a sample for determination of 3-DG. Meanwhile, 0.4 g of a high molecular weight fraction and 8 mL of 6N hydrochloric acid were charged in an ampule and the air in the ampule was replaced with nitrogen, and then hydrolysis was performed at 110° C. for 16 hours in a heat block. After reaction, 8 mL of 5N sodium hydroxide was added, and pH was adjusted using 1N hydrochloric acid and 1N sodium hydroxide to make pH within a range of 7.2 to 7.6. […]

Setting [1] is: Test Example 4, amino acid 0.4 g + carbohydrate 1.8 g.
[2] abbreviates: Test Example 5, bovine serum albumin 0.4 g + carbohydrate 1.8 g.
The mark [3] stands for this setting: Test Example 5, human serum albumin 0.4 g + carbohydrate 1.8 g.
Setting [4] is: Test Example 5, γ-globulin 0.4 g + carbohydrate 1.8 g.
Where [5] appears, read: Test Example 6, collagen 0.015 g + carbohydrate 1.8 g.
Where [6] appears, read: Test Example 4, amino acid + carbohydrate, mixture of sample and AGE-BSA, amount of protein 100 μg/mL, relative to control (AGE-BSA) = 1.
Setting [7] is: Test Example 5, bovine serum albumin + carbohydrate, mixture of sample and AGE-BSA, protein 100 μg/mL, relative to control (AGE-BSA) = 1.
Setting [8] is: Test Example 5, human serum albumin + carbohydrate, mixture of sample and AGE-BSA, protein 100 μg/mL, relative to control (AGE-BSA) = 1.
[9] abbreviates: Test Example 5, γ-globulin + carbohydrate, mixture of sample and AGE-BSA, protein 10 μg/mL, relative to control (AGE-BSA) = 1.
Setting [10] is: Test Example 6, collagen + carbohydrate, mixture of sample and AGE-BSA, protein 10 μg/mL, relative to control (AGE-BSA) = 1.
Where [11] appears, read: Test Example 3, amino acid (lysine:arginine 1:1) 0.4 g + glucose 1.8 g or maltitol 3.4 g.
The mark [12] stands for this setting: Test Example 3, bovine serum albumin 0.4 g + glucose 1.8 g or maltitol 3.4 g.
Setting [13] is: Test Example 5, bovine serum albumin, human serum albumin, γ-globulin, compared with sections containing glucose.
The mark [14] stands for this setting: Test Example 6, collagen, compared with sections containing glucose and fructose.

The structures appear in SMILES notation.

Consider `O=C(CO)[C@@H](O)[C@H](O)[C@H](O)CO` [Fructose], for which the 3-DG with 3-DG (setting [1]) is listed as 904 nmol/1 mL of reaction solution; in the assay on 3-DG (setting [2]) it was 5316 nmol/1 mL of reaction solution; in the assay with 3-DG (setting [3]), 2358 nmol/1 mL of reaction solution; with 3-DG (setting [4]) it was 877 nmol/1 mL of reaction solution; in the assay with 3-DG (setting [5]) it was 1447 nmol/1 mL of reaction solution. The RAGE antagonist activity at human RAGE (setting [6]) was 0.70; at human RAGE (setting [7]) it was 1.15; on human RAGE (setting [8]), 1.33; on human RAGE (setting [9]), 1.08; at human RAGE (setting [10]) it was 2.49.

Regarding `O=C[C@H](O)[C@@H](O)[C@H](O)[C@H](O)CO` [Glucose], the 3-DG is recorded as 22,761 nmol/1 g of protein in the assay with 3-DG (setting [11]); 29,938 nmol/1 g of protein with 3-DG (setting [12]); 8310 nmol/1 mL of reaction solution in the assay on 3-DG (setting [1]); 10253 nmol/1 mL of reaction solution with 3-DG (setting [2]); 2575 nmol/1 mL of reaction solution in the assay with 3-DG (setting [3]); 877 nmol/1 mL of reaction solution with 3-DG (setting [4]). Besides, the 3-DG with 3-DG (setting [5]) was 232 nmol/1 mL of reaction solution. Further, the RAGE antagonist activity is on record as 0.56 at human RAGE (setting [6]); 1.08 at human RAGE (setting [7]); 1.20 on human RAGE (setting [8]); 1.07 on human RAGE (setting [9]); 2.85 at human RAGE (setting [10]).

For the compound `OC[C@@H](O)[C@@H](O[C@H]1O[C@H](CO)[C@@H](O)[C@H](O)[C@H]1O)[C@H](O)[C@@H](O)CO` [Maltitol], the 3-DG with 3-DG (setting [11]) is listed as 127 nmol/1 g of protein; in the assay with 3-DG (setting [12]), 1,181 nmol/1 g of protein. Besides, the “production of 3-DG” value with 3-DG (Test Example 3, amino acids and bovine serum albumin, compared with sections containing glucose) was “significantly decreased”.

Turning to `OC[C@@H](O)[C@@H](O)[C@H](O)[C@@H](O)CO` [Sorbitol], the 3-DG in the assay with 3-DG (setting [1]) is listed as 13 nmol/1 mL of reaction solution; in the assay with 3-DG (setting [2]), 33 nmol/1 mL of reaction solution; in the assay on 3-DG (setting [3]), 78 nmol/1 mL of reaction solution; with 3-DG (setting [4]), 21 nmol/1 mL of reaction solution; in the assay on 3-DG (setting [5]), 24 nmol/1 mL of reaction solution. Besides, the “production of 3-DG” value in the assay on 3-DG (Test Example 4, amino acid, compared with sections containing glucose and fructose) was “significantly decreased”; in the assay with 3-DG (Test Example 5, bovine serum albumin, human serum albumin, γ-globulin, compared with sections containing fructose) it was “significantly decreased”; in the assay on 3-DG (setting [13]), “decreased”; in the assay on 3-DG (setting [14]), “significantly decreased”. The RAGE antagonist activity is recorded as 0.66 at human RAGE (setting [6]); “decreased” on human RAGE (Test Example 4, amino acid, compared with the test section 2 containing fructose); 1.08 at human RAGE (setting [7]); “decreased” on human RAGE (setting [13]); 1.01 at human RAGE (setting [8]); “decreased” at human RAGE (Test Example 5, test sections 3 and 6 (bovine serum albumin, human serum albumin), compared with sections containing fructose). The RAGE antagonist activity at human RAGE (setting [9]) was 0.90; on human RAGE (setting [10]) it was 1.22; on human RAGE (setting [14]), “decreased”.
